# What was measured:
# [1] = system: Botrytis cinerea RR-4; assay: Disease suppressive activity against gray mold, cucumber seedling cotyledon test; type: in vivo; conditions: strain RR-4 (multi-resistant strain), incubated at 20°C for three days
# Procedure: (§1) The disease suppressive activity of the present compounds I-a, I-c (and I-b), I-d (and I-e), I-f, I-g, I-h, and I-i against the gray mold was tested by the following procedure. A solution of the present compound having a predetermined concentration was coated,with an absorbent cotton block, on the cotyledon of a cucumber seedling seven days after seeding. One day after the coating, an agar disk having a diameter of 5 mm containing Botrytis cinerea was put on the coated cotyledon, the plant was incubated at 20°C for three days, and the disease suppresive activity of the tested compound was observed. In Table 4, Botrytis cinerea RR-4 is a strain resistant to antimicrobial agents (multi-resistant strain), isolated from a diseased seedling of egg plant, and Botrytis cinerea S-9 is a strain sensitive to antimicrobial agents, isolated from a diseased petal of orange blossom. Note, the extent of the disease suppressive effect is expressed by symbols + (no lesion), ± (lesion having a diameter of less than 10 mm formed), and - (lesion having a diameter of not less than 10 mm formed).
# [2] = system: Botrytis cinerea S-9; assay: as above; type: in vivo; conditions: strain S-9 (sensitive to antimicrobial agents), incubated at 20°C for three days
# Procedure: as §1
# [3] = 32 ppm coated on cucumber seedling cotyledon
# [4] = 125 ppm coated on cucumber seedling cotyledon
# [5] = 8 ppm coated on cucumber seedling cotyledon
Compound,"Disease suppressive effect to Botrytis cinerea [1, 3]","Disease suppressive effect to Botrytis cinerea [1, 4]","Disease suppressive effect to Botrytis cinerea [2, 3]","Disease suppressive effect to Botrytis cinerea [2, 4]","Disease suppressive effect to Botrytis cinerea [1, 5]","Disease suppressive effect to Botrytis cinerea [2, 5]"
CCC1C=CC(=O)OC1C=CC(O)(CCN)C(CC(O)C=CC=CC1CCCCC1)OP(=O)(O)O (stereo not drawn) [I-a],- (- (lesion having a diameter of not less than 10 mm formed)),+,- (- (lesion having a diameter of not less than 10 mm formed)),+,–,–
CCC1C=CC(=O)OC1C=CC(O)(CCN)C(CC(O)C=CC=CC1CCCC(OC(=O)C2CCCCC2)C1)OP(=O)(O)O (stereo not drawn) [I-f],+,–,+,–,+,+
CCC(C)CCC(=O)OC1CCCC(C=CC=CC(O)CC(OP(=O)(O)O)C(O)(C=CC2OC(=O)C=CC2CC)CCN)C1 (stereo not drawn) [I-g],+,–,+,–,+,+
CCC1C=CC(=O)OC1C=CC(O)(CCN)C(CC(O)C=CC=CC1CCCC(OC(=O)CCCCC(C)C)C1)OP(=O)(O)O (stereo not drawn) [I-h],+,–,+,–,- (- (lesion having a diameter of not less than 10 mm formed)),- (- (lesion having a diameter of not less than 10 mm formed))
CCCCCCCC(=O)OC1CCCC(C=CC=CC(O)CC(OP(=O)(O)O)C(O)(C=CC2OC(=O)C=CC2CC)CCN)C1 (stereo not drawn) [I-i],+,–,+,–,- (- (lesion having a diameter of not less than 10 mm formed)),- (- (lesion having a diameter of not less than 10 mm formed))
"CC12CC1(C)C(=O)N(c1cc(Cl)cc(Cl)c1)C2=O (stereo not drawn) [Procymidone, reference compound]",- (- (lesion having a diameter of not less than 10 mm formed)),- (- (lesion having a diameter of not less than 10 mm formed)),- (- (lesion having a diameter of not less than 10 mm formed)),+,–,–

# Reference: patent publication EP0329361A2, “2-pyranone derivatives and process for production thereof” (priority 1988, dated 1989)
